This passage reports IC50 results from patent US20170037028A1 (BAYER PHARMA AKTIENGESELLSCHAFT, priority 2013, published 2017).

The first test concerns the target T1, GLUT1 (Homo sapiens, UniProt P11166).
T1 sequence (P11166 1-492): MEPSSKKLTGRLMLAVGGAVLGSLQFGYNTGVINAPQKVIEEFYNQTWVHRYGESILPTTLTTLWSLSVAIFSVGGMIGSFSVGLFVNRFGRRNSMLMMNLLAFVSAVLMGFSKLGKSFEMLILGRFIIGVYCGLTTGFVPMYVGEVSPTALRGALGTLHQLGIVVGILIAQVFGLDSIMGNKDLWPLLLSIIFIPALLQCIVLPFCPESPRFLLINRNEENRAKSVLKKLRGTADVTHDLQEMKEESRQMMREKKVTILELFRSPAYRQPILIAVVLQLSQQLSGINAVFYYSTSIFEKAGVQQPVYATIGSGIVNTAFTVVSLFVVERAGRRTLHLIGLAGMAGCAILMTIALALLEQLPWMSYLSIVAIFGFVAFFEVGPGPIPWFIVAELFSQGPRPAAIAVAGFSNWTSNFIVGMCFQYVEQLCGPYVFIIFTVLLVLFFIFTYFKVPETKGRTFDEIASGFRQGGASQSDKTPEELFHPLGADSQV
Description: Indirect measurement of GLUT1 activity by quantification of intracellular ATP levels (glucose induced ATP increase). Type of test: cell-based. The arrangement: endogenous in cells; host or cells: DLD1 or CHO-K1. The settings on record: DLD1 cells; 0.1 mM glucose, 1 μM Rotenone, 15 min; CellTiter-Glo ATP readout; IC50 values standardized to cytochalasin B IC50 values; read-out: IC50 regarding glucose induced ATP increase (GLUT1 inhibition). An outline of the steps: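 Intracellular ATP was measured by CellTiter-Glo luminescence as an indirect readout of transport: glucose-driven for GLUT1, fructose-driven for GLUT2. DLD1 or CHO-K1 cells were used alongside an oxidative phosphorylation inhibitor. Beforehand, cells were held overnight in glucose-free 1% FCS medium to deplete ATP.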
Background: ATP-based viability assays read luminescence as a measure of living cells.
The IC50 is the concentration needed to halve the response being measured. `Cc1ccc2nc(C(N)=O)cc(C(=O)Nc3c(C(F)(F)F)nn(Cc4ccc(C#N)cc4)c3C)c2c1` [Example 366, N^4-[1-(4-cyanobenzyl)-5-methyl-3-(trifluoromethyl)-1H-pyrazol-4-yl]-6-methylquinoline-2,4-dicarboxamide]: the IC50 is 7 nM.

The test is the same for the next values; noted with them: read-out: IC50 regarding glucose induced ATP increase (GLUT1 inhibition).
For `Cc1cc(C(=O)Nc2c(C)nn(Cc3ccc(F)cc3)c2C)c2ccc(C#N)cc2n1` [Example 1309], the half-inhibitory concentration (IC50) is 17500 nM.
Same read-out and setting: under `Cc1nn(Cc2ccncn2)c(C)c1NC(=O)c1cc(C(N)=O)nc2ccccc12` [Example 1417] stands 164 nM; under `Cc1nn(Cc2ccc(F)cc2C#N)c(C)c1NC(=O)c1cc(C(N)=O)nc2ccccc12` [Example 1661], 3.4 nM.
Same read-out and setting: as for `Cc1nn(Cc2ccccc2F)c(C)c1NC(=O)c1cc(C(F)(F)F)nc2c(Cl)cc(Cl)cc12` [Example 94, 6,8-dichloro-N-[1-(2-fluorobenzyl)-3,5-dimethyl-1H-pyrazol-4-yl]-2-(trifluoromethyl)quinoline-4-carboxamide], the figure is 304 nM; as for `Cc1nn(Cc2cn3ccccc3n2)c(C)c1NC(=O)c1cc(C(F)(F)F)nc2ccc(Br)cc12` [Example 1528], 59.4 nM; as for `CCc1cc(Cn2nc(C(F)(F)F)c(NC(=O)c3cc(C(N)=O)nc4cc(F)ccc34)c2C)on1` [Example 1556], 41.7 nM.
The same measure, in the same setting: under `Cc1nn(Cc2ccc(OC(F)(F)F)cc2)c(C)c1NC(=O)c1cc(C(F)(F)F)nc2c(Cl)cc(Cl)cc12` [Example 60, 6,8-dichloro-N-{3,5-dimethyl-1-[4-(trifluoromethoxy)benzyl]-1H-pyrazol-4-yl}-2-(trifluoromethyl)quinoline-4-carboxamide] stands 97.9 nM; under `Cc1nn(Cc2cccc(C#N)c2)c(C)c1NC(=O)c1cc(C(N)=O)nc2cccc(F)c12` [Example 1457], 15.2 nM; under `Cc1cc(Cn2nc(C)c(NC(=O)c3cc(C(N)=O)nc4cc(F)ccc34)c2C)on1` [Example 1561], 10.4 nM.
`COc1cc(C(=O)Nc2c(C)nn(C(C)c3ccc(F)cc3)c2C)c2ccccc2n1` (stereo not drawn) [Example 1375]: the concentration for half-maximal inhibition (IC50) worked out at 15.1 nM.
The same measure, in the same setting: under `Cc1c(NC(=O)c2cc(C(N)=O)nc3c(F)cc(Cl)cc23)c(C(F)(F)F)nn1Cc1ccc(C#N)cc1` [Example 241, 6-chloro-N^4-[1-(4-cyanobenzyl)-5-methyl-3-(trifluoromethyl)-1H-pyrazol-4-yl]-8-fluoroquinoline-2,4-dicarboxamide] stands 1.1 nM; under `Cc1nn(Cc2ccc(C(=O)NC(C)(C)C)cc2)c(C)c1NC(=O)c1cc(C(F)(F)F)nc2ccc(Br)cc12` [Example 1174], 203 nM.
Same read-out and setting: as for `Cc1c(NC(=O)c2cc(C(N)=O)nc3cccc(F)c23)c(C(F)(F)F)nn1Cc1cc(F)ccc1C#N` [Example 1654], the figure is 221 nM; as for `Cc1nn(Cc2ccc(C#N)cc2)c(C)c1NC(=O)c1cc(Br)nc2ccccc12` [Example 380, 2-bromo-N-[1-(4-cyanobenzyl)-3,5-dimethyl-1H-pyrazol-4-yl]quinoline-4-carboxamide], 45.9 nM; as for `Cc1nn(Cc2ccc(C(=O)Nc3nccs3)cc2)c(C)c1NC(=O)c1cc(C(F)(F)F)nc2ccc(Br)cc12` [Example 1047], 11.2 nM.
Regarding `Cc1nn(Cc2ccc(F)c(F)c2)c(C)c1NC(=O)c1cc(C2CCC2)nc2ccc(Br)cc12` [Example 144, 6-bromo-2-cyclobutyl-N-[1-(3,4-difluorobenzyl)-3,5-dimethyl-1H-pyrazol-4-yl]quinoline-4-carboxamide], the IC50 was determined as 5.7 nM.
On the same count and under the same terms, under `COc1ccc(Cn2nc(C)c(NC(=O)c3cc(OC)nc4ccccc34)c2C)cc1` [Example 1, 2-methoxy-N-[1-(4-methoxybenzyl)-3,5-dimethyl-1H-pyrazol-4-yl]quinoline-4-carboxamide] stands 1.6 nM; under `Cc1nn(CCCc2ccc(C#N)cc2)c(C)c1NC(=O)c1cc(C(F)(F)F)nc2ccc(Br)cc12` [Example 348, 6-bromo-N-{1-[3-(4-cyanophenyl)propyl]-3,5-dimethyl-1H-pyrazol-4-yl}-2-(trifluoromethyl)quinoline-4-carboxamide], 6.1 nM; under `Cc1c(NC(=O)c2cc(C(N)=O)nc3ccccc23)c(C(F)(F)F)nn1Cc1ccc(C#N)nc1` [Example 289, N^4-{1-[(6-cyanopyridin-3-yl)methyl]-5-methyl-3-(trifluoromethyl)-1H-pyrazol-4-yl}quinoline-2,4-dicarboxamide], 21.5 nM.
Still for that read-out and setting: under `Cc1nn(Cc2ccc(C(=O)NCCCCCO)cc2)c(C)c1NC(=O)c1cc(C(F)(F)F)nc2ccc(Br)cc12` [Example 1077] stands 23.1 nM.
The same measure, in the same setting: as for `Cc1cccc(Cn2nc(C)c(NC(=O)c3cc(C)nc4ccc(C)cc34)c2C)c1` [Example 101, N-[3,5-dimethyl-1-(3-methylbenzyl)-1H-pyrazol-4-yl]-2,6-dimethylquinoline-4-carboxamide], the figure is 396 nM.
In the case of `Cc1nn(Cc2ccc(F)cc2)c(C)c1NC(=O)c1cc(C(F)(F)F)nc2ccc([N+](=O)[O-])cc12` [Example 1088], the IC50 is 34.9 nM.
On the same count and under the same terms, as for `Cc1c(NC(=O)c2cc(C(N)=O)nc3cccc(F)c23)c(C(F)(F)F)nn1Cc1ccc(CC(F)(F)F)cc1` [Example 1715], the figure is 1.5 nM.
Take `Cc1nn(Cc2ccc(C(=O)Nc3cccc(Cl)c3)cc2)c(C)c1NC(=O)c1cc(C(F)(F)F)nc2ccc(Br)cc12` [Example 1066]: the IC50 came out at 19.1 nM.
Still for that read-out and setting: as for `Cc1nn(Cc2ccc(OC(F)(F)F)cc2)c(C)c1NC(=O)c1cc(C(N)=O)nc2cc(F)c(Cl)cc12` [Example 1463], the figure is 4.1 nM; as for `Cc1nn(Cc2ccc(F)cc2F)c(C)c1NC(=O)c1cc(C(F)(F)F)nc2ccc(Br)cc12` [Example 41, 6-bromo-N-[1-(2,4-difluorobenzyl)-3,5-dimethyl-1H-pyrazol-4-yl]-2-(trifluoromethyl)quinoline-4-carboxamide], 30 nM; as for `Cc1c(NC(=O)c2cc(C(N)=O)nc3ccccc23)c(C(F)(F)F)nn1Cc1ccc(C2CCC2)cc1` [Example 1617], 54.9 nM.
Same read-out and setting: under `Cc1nn(Cc2ccc(C(=O)NCCCN(C)C)cc2)c(C)c1NC(=O)c1cc(C(F)(F)F)nc2ccc(Br)cc12` [Example 1167] stands 171 nM; under `Cc1nn(Cc2ccc(C(=O)NCc3ccncc3)cc2)c(C)c1NC(=O)c1cc(C(F)(F)F)nc2ccc(Br)cc12` [Example 1021], 2.3 nM.
On the same count and under the same terms, as for `CCCS(=O)(=O)N1CCC(Cn2nc(C)c(NC(=O)c3cc(C(N)=O)nc4ccccc34)c2C)CC1` [Example 1510], the figure is 20 nM; as for `Cc1c(NC(=O)c2cc(C(N)=O)nc3cc(F)c(Cl)cc23)c(C(F)(F)F)nn1Cc1cccc(S(C)(=O)=O)c1` [Example 1638], 61.3 nM.
For `Cc1nn(Cc2ccc(C(=O)NCc3cccnc3)cc2)c(C)c1NC(=O)c1cc(C(F)(F)F)nc2ccc(Br)cc12` [Example 138, 6-bromo-N-(3,5-dimethyl-1-{4-[(pyridin-3-ylmethyl)carbamoyl]benzyl}-1H-pyrazol-4-yl)-2-(trifluoromethyl)quinoline-4-carboxamide], the half-inhibitory concentration (IC50) came to 18.1 nM.
Still for that read-out and setting: as for `Cc1cc(Cn2nc(C(F)(F)F)c(NC(=O)c3cc(C(N)=O)nc4cc(F)ccc34)c2C)ccc1C#N` [Example 1695], the figure is 4.7 nM; as for `Cc1ccc(CCNC(=O)c2ccc(Cn3nc(C)c(NC(=O)c4cc(C(F)(F)F)nc5ccc(Br)cc45)c3C)cc2)cc1` [Example 1210], 572 nM.
Still for that read-out and setting: as for `Cc1nn(Cc2ccc(F)cc2)c(C)c1NC(=O)c1cc(C(N)=O)nc2ccc(F)cc12` [Example 229, 6-fluoro-N^4-[1-(4-fluorobenzyl)-3,5-dimethyl-1H-pyrazol-4-yl]quinoline-2,4-dicarboxamide], the figure is 4.6 nM.
As for `Cc1c(NC(=O)c2cc(C(N)=O)nc3ccc(Br)cc23)c(C(F)(F)F)nn1Cc1c(F)cc(C#N)cc1F` [Example 399, 6-bromo-N^4-[1-(4-cyano-2,6-difluorobenzyl)-5-methyl-3-(trifluoromethyl)-1H-pyrazol-4-yl]quinoline-2,4-dicarboxamide], the concentration for half-maximal inhibition (IC50) turned out to be 4.5 nM.
On the same count and under the same terms, under `Cc1nn(Cc2ccc(F)cc2)c(C)c1NC(=O)c1cc(O)nc2ccccc12` [Example 1260] stands 2170 nM; under `Cc1c(NC(=O)c2cc(C(F)(F)F)nc3cc(F)c(F)cc23)c(C(F)(F)F)nn1Cc1ccc(F)cc1F` [Example 210, N-[1-(2,4-difluorobenzyl)-5-methyl-3-(trifluoromethyl)-1H-pyrazol-4-yl]-6,7-difluoro-2-(trifluoromethyl)quinoline-4-carboxamide], 849 nM; under `COc1cccc(Cn2nc(C)c(NC(=O)c3cc(C(N)=O)nc4ccccc34)c2C)c1` [Example 1452], 8.8 nM.
Turning to `Cc1c(NC(=O)c2cc(C(N)=O)nc3cc(F)ccc23)c(C(F)(F)F)nn1Cc1ncco1` [Example 1529], the concentration for half-maximal inhibition (IC50) was found to be 402 nM.
The same measure, in the same setting: as for `Cc1c(NC(=O)c2cc(C(N)=O)nc3ccccc23)c(C(F)(F)F)nn1Cc1cc(F)ccc1C#N` [Example 1652], the figure is 112 nM.
